Values quoted from earlier work in US20030232078A1, “Formulation & dosage form for the controlled delivery of therapeutic agents” (priority 2001, published 2003).

Details: conventional formulations; well known

| Structure (SMILES) | absorption in the lower GI tract |
| --- | --- |
| CS(=O)(=O)Nc1ccc(F)c([C@@H](O)CN)c1.Cl [ABT-232] | not absorbed in significant amounts |
| N[C@@H](Cc1ccc(O)c(O)c1)C(=O)O [L-dopa] | not absorbed in significant amounts |
| C[C@@](Cc1ccc(O)c(O)c1)(NN)C(=O)O [carbidopa] | not absorbed in significant amounts |
